Test results published in patent publication US10695296B2, “Formulations, methods, kit, and dosage forms for improved stability of an active pharmaceutical ingredient” (Asana BioSciences, LLC, priority 2017, dated 2020).
Like-named read-outs stand apart in the source and are kept apart here.

Assay: PK characteristics in humans (plasma, LC/MS/MS)
Format: in vivo, human
Details: for Cmax / half-life / Tmax / AUC(0-t): human, plasma; for Cmax: read-out: Cmax; for Tmax: read-out: Tmax
Description: A pharmaceutical formulation of the disclosure comprising the active ingredient N-(3-(2-(6-amino-4-(trifluoromethyl)pyridin-3-yl)-4-morpholinopyrido[3,2-d]pyrimidin-6-yl)-2-fluorophenyl)-3-fluoropropane-1-sulfonamide was evaluated for safety/tolerability and preliminary efficacy in eligible human subjects with advanced solid tumors, and the pharmacokinetic (PK) profile of the active ingredient was investigated for each subject. Eligibility criteria for inclusion in this study included:
Fifteen eligible patients were enrolled in total daily dose levels ranging from 10-800 mg per day of the active ingredient, provided as 10-mg, 20-mg, 80-mg and 120-mg tablets for oral administration. Dose escalation is ongoing. All study medication supplies were provided by Asana BioSciences, LLC (Bridgewater, N.J.). The tablets were administered orally every 12-24 hours on an empty stomach (either 1 hour before or 2 hours after a meal or snack) with approximately 240 mL of water. On study days in which there was a single plasma PK sample taken, the subject was instructed to fast for at least 2 hours prior to collection of the PK sample. On study days with multiple plasma PK samples taken, the subject was instructed to fast overnight (at least 8 hours prior to study drug administration) and remain fasting for 2 hours after study drug administration. The date and time of the dose(s) taken prior to or on PK sampling days were collected by the study site or catalogued via a diary card provided to the subject.
An ultra performance liquid chromatographic method was used for the determination of the active ingredient in human EDTA K2 plasma. This method was validated over an analytical range of 0.5 to 500 ng/mL. Calibration standards (CS) and quality control (QC) samples at three or four levels of concentrations were prepared fresh from the appropriate working solutions which were stored at −20° C. The human EDTA K2 plasma used for the preparation of CS and QC samples was obtained from Bioreclamation (Westbury, Pa., USA) and analyzed to determine possible interference with the analyte or the internal standard, and no significant interference was observed. The following parameters were used to determine analyte levels in the plasma samples: […]

[1] = oral, 40 mg, Day 15, 40 mg, n=2, mean
[2] = oral, 40 mg, steady state, 40 QD mg, n=2, mean, cancer patients
[3] = oral, 80 mg, Day 1, 80 mg, n=2, mean
[4] = oral, 80 mg, Day 15, 80 mg, n=2, mean
[5] = oral, 80 mg, steady state, 80 QD mg, n=2, mean, cancer patients
[6] = oral, 240 mg, Day 1, 240 mg, n=2, mean
[7] = oral, 240 mg, Day 15, 240 mg, n=2, mean
[8] = oral, 240 mg, steady state, 240 QD mg, n=2, mean, cancer patients
[9] = oral, 400 mg, Day 1, 400 bid mg, individual subjects
[10] = oral, 400 mg, Day 1, 400 bid mg, mean
[11] = oral, 400 mg, Day 15, 400 QD mg, n=2, mean
[12] = oral, 400 mg, Day 15, 400 bid mg, n=1
[13] = oral, 400 mg, steady state, 400 BID mg, n=1, cancer patients
[14] = oral, 400 mg, steady state, 400 QD mg, n=2, mean, cancer patients

Nc1cc(C(F)(F)F)c(-c2nc(N3CCOCC3)c3nc(-c4cccc(NS(=O)(=O)CCCF)c4F)ccc3n2)cn1 [CMPD A, N-(3-(2-(6-amino-4-(trifluoromethyl)pyridin-3-yl)-4-morpholinopyrido[3,2-d]pyrimidin-6-yl)-2-fluorophenyl)-3-fluoropropane-1-sulfonamide]
Cmax [1]: 348 ng/mL
half-life (oral, 40 mg, Day 15, 40 mg, n=2, mean, read-out: T1/2 (converted)): 35.1 h
Tmax [1]: 4 h
AUC(0-t) (oral, 40 mg, steady state, 40 QD mg, n=2, mean, cancer patients, read-out: AUC0-24h): 5890 ng·h/mL
Cmax [2]: 348 ng/mL
Tmax [2]: 4 h
half-life (oral, 80 mg, Day 1, 80 mg, individual subject (other NC), read-out: T1/2 (converted)): 22.4 h
Cmax (oral, 80 mg, Day 1, 80 mg, individual subjects): 470 ng/mL
AUC(0-t) (oral, 80 mg, Day 1, 80 mg, n=2, mean, read-out: AUC0-24): 6050 ng·h/mL
Cmax [3]: 384 ng/mL
Tmax [3]: 14 h
half-life (oral, 80 mg, Day 15, 80 mg, individual subject (other NC), read-out: T1/2 (converted)): 48.7 h
AUC(0-t) (oral, 80 mg, Day 15, 80 mg, individual subjects, read-out: AUC0-24): 19000 ng·h/mL
Cmax (oral, 80 mg, Day 15, 80 mg, individual subjects): 931 ng/mL
AUC(0-t) (oral, 80 mg, Day 15, 80 mg, n=2, mean, read-out: AUC0-24): 20100 ng·h/mL
Cmax [4]: 1060 ng/mL
Tmax [4]: 14 h
AUC(0-t) (oral, 80 mg, steady state, 80 QD mg, n=2, mean, cancer patients, read-out: AUC0-24h): 20100 ng·h/mL
Cmax [5]: 1060 ng/mL
Tmax [5]: 14 h
AUC(0-t) (oral, 120 mg, Day 1, 120 mg, n=3, mean, read-out: AUC0-24): 6660 ng·h/mL
Cmax (oral, 120 mg, Day 1, 120 mg, n=3, mean): 509 ng/mL
half-life (oral, 120 mg, Day 1, 120 mg, n=3, mean, read-out: T1/2 (converted)): 24.9 h
Tmax (oral, 120 mg, Day 1, 120 mg, n=3): 4 h
AUC(0-t) (oral, 120 mg, Day 15, 120 mg, n=3, mean, read-out: AUC0-24): 10100 ng·h/mL
Cmax (oral, 120 mg, Day 15, 120 mg, n=3, mean): 728 ng/mL
half-life (oral, 120 mg, Day 15, 120 mg, n=3, mean, read-out: T1/2 (converted)): 24.1 h
Tmax (oral, 120 mg, Day 15, 120 mg, n=3): 4 h
Tmax (oral, 120 mg, steady state, 120 QD mg, n=3, cancer patients): 4 h
AUC(0-t) (oral, 120 mg, steady state, 120 QD mg, n=3, mean, cancer patients, read-out: AUC0-24h): 10100 ng·h/mL
Cmax (oral, 120 mg, steady state, 120 QD mg, n=3, mean, cancer patients): 728 ng/mL
AUC(0-t) (oral, 240 mg, Day 1, 240 mg, n=2, mean, read-out: AUC0-24): 6930 ng·h/mL
Cmax [6]: 520 ng/mL
half-life (oral, 240 mg, Day 1, 240 mg, n=2, mean, read-out: T1/2 (converted)): 17.5 h
Tmax [6]: 5 h
Tmax (oral, 240 mg, Day 15, 240 mg, individual subjects): 2 h
AUC(0-t) (oral, 240 mg, Day 15, 240 mg, n=2, mean, read-out: AUC0-24): 14900 ng·h/mL
Cmax [7]: 954 ng/mL
half-life (oral, 240 mg, Day 15, 240 mg, n=2, mean, read-out: T1/2 (converted)): 19.7 h
Tmax [7]: 2 h
AUC(0-t) (oral, 240 mg, steady state, 240 QD mg, n=2, mean, cancer patients, read-out: AUC0-24h): 14900 ng·h/mL
Cmax [8]: 954 ng/mL
Tmax [8]: 2 h
half-life (oral, 400 mg, Day 1, 400 QD mg, individual subjects, read-out: T1/2 (converted)): 15.2 h
AUC(0-t) (oral, 400 mg, Day 1, 400 QD mg, n=2, mean, read-out: AUC0-24): 15000 ng·h/mL
Cmax (oral, 400 mg, Day 1, 400 QD mg, n=2, mean): 1070 ng/mL
half-life (oral, 400 mg, Day 1, 400 QD mg, n=2, mean, read-out: T1/2 (converted)): 15.4 h
Tmax (oral, 400 mg, Day 1, 400 QD mg, n=2): 2 h
AUC(0-t) (oral, 400 mg, Day 1, 400 bid mg, individual subjects, read-out: AUC0-24): 32100 ng·h/mL
Cmax [9]: 2330 ng/mL
half-life (oral, 400 mg, Day 1, 400 bid mg, individual subjects, read-out: T1/2 (converted)): 22.5 h
Tmax [9]: 8 h
AUC(0-t) (oral, 400 mg, Day 1, 400 bid mg, mean, read-out: AUC0-24): 26300 ng·h/mL
Cmax [10]: 1880 ng/mL
half-life (oral, 400 mg, Day 1, 400 bid mg, mean, read-out: T1/2 (converted)): 18.6 h
Tmax [10]: 6 h
AUC(0-t) (oral, 400 mg, Day 15, 400 QD mg, individual subjects, read-out: AUC0-24): 25500 ng·h/mL
Cmax (oral, 400 mg, Day 15, 400 QD mg, individual subjects): 2770 ng/mL
half-life (oral, 400 mg, Day 15, 400 QD mg, individual subjects, read-out: T1/2 (converted)): 10.1 h
AUC(0-t) (oral, 400 mg, Day 15, 400 QD mg, n=2, mean, read-out: AUC0-24): 33400 ng·h/mL
Cmax [11]: 2850 ng/mL
half-life (oral, 400 mg, Day 15, 400 QD mg, n=2, mean, read-out: T1/2 (converted)): 10.9 h
Tmax [11]: 4.5 h
AUC(0-t) (oral, 400 mg, Day 15, 400 bid mg, n=1, read-out: AUC0-24): 110000 ng·h/mL
Cmax [12]: 5900 ng/mL
Tmax [12]: 2 h
AUC(0-t) (oral, 400 mg, steady state, 400 BID mg, n=1, cancer patients, read-out: AUC0-24h): 110000 ng·h/mL
Cmax [13]: 5990 ng/mL
Tmax [13]: 2 h
AUC(0-t) (oral, 400 mg, steady state, 400 QD mg, n=2, mean, cancer patients, read-out: AUC0-24h): 33400 ng·h/mL
Cmax [14]: 2850 ng/mL
Tmax [14]: 4.5 h
half-life (po, human subjects, oral tablets, read-out: Effective t½ (converted)): ~24 h
half-life (po, human subjects, oral tablets, read-out: t1/2 (rate of elimination)): 10 to 25 h
Cmin (steady state, 10 QD mg, n=1, cancer patients): 16.0 ng/mL
Cmin (steady state, 20 QD mg, n=1, cancer patients): 76.4 ng/mL
Cmin (steady state, 40 QD mg, n=2, mean, cancer patients): 167 ng/mL
Cmin (steady state, 80 QD mg, n=2, mean, cancer patients): 614 ng/mL
Cmin (steady state, 120 QD mg, n=3, mean, cancer patients): 239 ng/mL
Cmin (steady state, 240 QD mg, n=2, mean, cancer patients): 463 ng/mL
Cmin (steady state, 400 BID mg, n=1, cancer patients): 3718 ng/mL
Cmin (steady state, 400 QD mg, n=2, mean, cancer patients): 589 ng/mL
